Laboratory results as given in patent US20220241176A1, “METHOD FOR LOADING OF MICROORGANISMS ON MULTIPHASE BIOMATERIALS” (priority 2019, published 2022).

What was measured:
[1] = system: S. aureus; test: Agar diffusion test of loaded BNC fleeces against S. aureus; type: cell-based, Staphylococcus aureus
Method: The evaluation of the antibacterial activity of B. subtilis and B. megaterium loaded—BNC against gram-positive S. aureus was determined by an agar diffusion test. Therefore, the bacterial suspensions of B. subtilis and S. aureus were prepared in TSB broth medium as described before. […] 3 BNC fleeces were loaded using B. subtilis suspension in TSB medium, and 3 BNC fleeces were loaded using B. subtilis suspension in saline. Further 3 BNC fleeces were loaded using the B. subtilis free-supernatant, 3 BNC fleeces were loaded with gentamycin as positive control, and 3 BNC fleeces with isotonic saline as negative control. The OD600 of S. aureus was adjusted to 0.5 McFarland using sterilized saline NaCl 0.9% and the optical density spectrophotometer (Biophotometer) was determined. 20 μl of S. aureus was spread on the surface of Mueller-Hinton agar plate by a sterilized glass spreader. The last control and loaded BNC fleeces were added onto surface of the Mueller Hinton agar: 1. Negative control: saline-loaded BNC 2. Positive control: gentamicin-loaded BNC 3. B. subtilis-loaded BNC in TSB medium 4. B. subtilis-loaded BNC in saline 5. B. subtilis-free supernatant-loaded BNC.

[2] = system: S. aureus; test: Agar well diffusion test against S. aureus (without BNC); type: cell-based, Staphylococcus aureus
Method: For the agar diffusion test the OD600 of B. megaterium and B. subtilis was adjusted to 0.1 McFarland using sterilized saline NaCl 0.9%. The OD600 of S. aureus was adjusted to 0.5 McFarland using sterilized saline NaCl 0.9%. 20 μl of S. aureus was spread on the surface of Mueller-Hinton agar plate by a sterilized glass spreader. The wells are […] on the agar plate using the back side of a 1 ml pipette tip. A small volume of Mueller-Hinton agar was melted in boiling water bath, then 100 μl of it was used to close the bottom of each created well. After solidification of the agar in the bottom of the wells, the wells were filled with 100 μl of: Negative control, sterilized saline NaCl 0.9%, Positive control, gentamicin 300 μg/ml, B. megaterium or B. subtilis-free supernatant, B. megaterium or B. subtilis suspension.

## gentamicin [Gentamycin]
[1]
  inhibition effect on S. aureus, on BNC - injection technique: + (by detection of inhibition zone > 2 mm)
  inhibition effect on S. aureus, on BNC - spray technique: + (by detection of inhibition zone > 2 mm)
  inhibition effect on S. aureus, on BNC - vortex technique: + (by detection of inhibition zone > 2 mm)
[2]; agar well diffusion, 100 μl per well, 37° C., 24 h
  inhibition zone (in words): inhibition zone
[2]; diffusion test
  inhibition effect on S. aureus, Without BNC: + (by detection of inhibition zone > 2 mm)
